Assay results from patent US10501479B2, “Benzenesulfonyl-asymmetric ureas and medical uses thereof” (HELSINN HEALTHCARE SA, priority 2016, dated 2019).
Where two headings read alike, the source gives them in different places.

Legend:
[1] = target: T1, recombinant human ghrelin receptor (HEK293/GRLN) (Homo sapiens, UniProt Q92847); experiment: Ghrelin inverse agonist potency (EC50) with IP-1 (IP-One HTRF) assay; format: cell-based; conditions: IP-1 assay
T1 construct: expressed in transfected cells
T1 sequence (Q92847 whole entry): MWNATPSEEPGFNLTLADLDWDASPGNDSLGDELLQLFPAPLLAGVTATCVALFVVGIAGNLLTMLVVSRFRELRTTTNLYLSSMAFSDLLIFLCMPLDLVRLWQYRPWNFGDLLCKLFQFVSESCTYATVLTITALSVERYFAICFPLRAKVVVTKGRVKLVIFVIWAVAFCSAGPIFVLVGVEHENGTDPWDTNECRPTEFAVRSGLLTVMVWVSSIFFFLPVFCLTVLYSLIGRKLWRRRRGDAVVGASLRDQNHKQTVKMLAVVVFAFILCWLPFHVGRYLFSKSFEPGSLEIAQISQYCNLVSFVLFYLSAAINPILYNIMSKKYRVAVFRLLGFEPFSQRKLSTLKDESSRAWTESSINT
In short: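 HEK293/GRLN cells were seeded 18-22 hours before the test, then exposed to compound in stimulation buffer for 1 hour at 37° C, 5% CO2. IP-1 was detected by IP-One HTRF (IP1-d2 plus Tb-cryptate, 1 hour RT), reading 620 and 665 nm; the inverse agonist EC50 was derived from this.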

[2] = target: T2, GHSR-1a (HEK293/GHSR1a cell line) (Homo sapiens, UniProt Q92847); experiment: Ghrelin antagonist potency (IC50) with calcium FLIPR assay, ghrelin 10 nM; format: cell-based
T2 construct: expressed in transfected cells; host or cells: HEK293/GHSR1a cell line
T2 sequence (Q92847 whole entry): as above
In short: (§1)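 Dye preload 30-60 min, RT or 37° C; compound in DMSO. Agonist mode: compound at t=20 sec, Ca2+ read 2 min. Antagonist mode: compound + ghrelin 10 nM at t=20 sec, 2 min read. EC50/IC50 from dose-response curves.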

[3] = Metabolic stability in human liver microsomes; format: in vitro ADME
Method: (§2) Metabolic Stability Study
(§3) The metabolic stability of compounds in human, dog, rat and mouse liver microsomes was performed according the experimental conditions reported below:
(§4) • a) Prepare the following 5 stock solutions: • 1. Test compound stock solutions: dilute 10 mM solution of dextromethorphan (Dtr) in DMSO, 10 mM solution of diphenhydramine (DPA) in DMSO, 10 mM solution of omeprazole (Ome) in DMSO, 10 mM solution of verapamil (Ver) in DMSO, and 10 mM of an inverse agonist compound in DMSO to 0.25 mM solution each with acetonitrile/water (70/30). • 2. Buffer: 100 mM potassium phosphate Buffer (PBS) at pH 7.4 • 3. Liver microsomes (20 mg/ml): Thaw in 37° C. water bath quickly • 4. 2000 μL: of NADPH regenerating system (1.3 mM). Place this system on ice before use:
(§5) • 5. […] The test compound concentration in the wells, measured by LC-MS/MS, represents the concentration at time=0. • f) To determine the test compound concentration when t≠0, pre-incubate the NADPH regenerating system and the incubation plate containing the remaining 320 μL of incubation mixture (microsomes protein and test compound) for 5 minutes at 37° C. • g) Start the incubation reaction by adding 80 μL NADPH regenerating system to each well containing the remaining 320 μL incubation mixture. • h) After 10 min., 30 min., and 90 min. of incubation at 37° C., transfer 100 μL of the incubation mixture (microsomes protein, test compound, and NADPH) into the wells of a stop plate pre-filled with 300 μL of the cold quench solution. Shake well. • i) Centrifuge the stop plate at 5000×g for 10 minutes. Collect and dilute the supernatant 3 times with distilled water. Sample and analyze the test compound concentration for all the wells by LC-MS/MS. Animal PK Studies via i.v. (intravenous), p.o. (orally) and s.c. (subcutaneous) administrations

[4] = Metabolic stability in mouse liver microsomes; format: in vitro ADME
Method: as §2, §3, §4, §5

[5] = target: T2, GHSR-1a (HEK293/GHSR1a cell line); experiment: Ghrelin agonist potency (EC50) with calcium FLIPR assay; format: cell-based; conditions: ghrelin agonist potency, read-out: Activity EC50/EMax
In short: as §1

[6] = inverse agonist potency, read-out: EC50 (Activity)
[7] = ghrelin antagonist potency, read-out: IC50 (Activity)
[8] = ghrelin inverse agonist potency, read-out: Activity EC50
[9] = ghrelin antagonist potency, read-out: Activity IC50

| Compound | EC50 [1, 6] | IC50 [2, 7] | Metabolic Stability Study H = human [3] | Metabolic Stability Study M = mouse [4] | IC50 ([2]; HEK293/GHSR1a, ghrelin 10 nM, read-out: Activity IC50 (ghrelin antagonist potency)) | EC50 [1, 8] | EC50 [5] | IC50 [2, 9] |
| --- | --- | --- | --- | --- | --- | --- | --- | --- |
| C[C@H](NC(=O)Nc1ccc(S(=O)(=O)N(C)c2ccc(CC(C)(C)N)cc2)cc1)c1cccc(Cl)c1Cl.Cl [H0971, (S)-N-(4-(2-amino-2-methylpropyl)phenyl)-4-(3-(1-(2,3-dichlorophenyl)ethyl)ureido)-N-methylbenzenesulfonamide] | 135 nM | 417 nM | 31.9 µL/min/mg | 24.8 µL/min/mg | – | – | – | – |
| CN(C)C(C)(C)Cc1ccc(NS(=O)(=O)c2ccc(NC(=O)NCc3ccccc3)cc2)cc1 [H1009, 4-(3-benzylureido)-N-(4-(2-(dimethylamino)-2-methylpropyl)phenyl) benzenesulfonamide] | 32.8 nM | 252 nM | 13.2 µL/min/mg | 33.8 µL/min/mg | – | – | – | – |
| CCN1CCc2cc(NS(=O)(=O)c3ccc(NC(=O)N[C@@H](C)c4ccc(OC)c(Cl)c4Cl)cc3)ccc2C1 [H1018, (S)-4-(3-(1-(2,3-dichloro-4-methoxyphenyl)ethyl)ureido)-N-(2-ethyl-1,2,3,4-tetrahydroisoquinolin-6-yl)benzenesulfonamide] | 13.7 nM | 99.8 nM | < 10 µL/min/mg | 46.3 µL/min/mg | – | – | – | – |
| C[C@H](NC(=O)Nc1ccc(S(=O)(=O)Cc2ccc3c(c2)CNC3)cc1)c1cccc(Cl)c1Cl.Cl [H1056, (S)-1-(1-(2,3-dichlorophenyl)ethyl)-3-(4-((isoindolin-5-ylmethyl)sulfonyl)phenyl)urea] | 2.6 nM | 5.8 nM | 16.4 µL/min/mg | 13.5 µL/min/mg | – | – | – | – |
| Cc1oc(=O)oc1CN1CCc2cc(CS(=O)(=O)c3ccc(NC(=O)N[C@@H](C)c4cccc(Cl)c4Cl)cc3)ccc2C1 [H1067, (S)-1-(1-(2,3-dichlorophenyl)ethyl)-3-(4-(((2-((5-methyl-2-oxo-1,3-dioxol-4-yl)methyl)-1,2,3,4-tetrahydroisoquinolin-6-yl)methyl)sulfonyl)phenyl)urea] | 4.5 nM | 14 nM | 326.2 µL/min/mg | 289 µL/min/mg | – | – | – | – |
| Cc1oc(=O)oc1CN1CCc2cc(NS(=O)(=O)c3ccc(NC(=O)N[C@@H](C)c4cccc(Cl)c4Cl)cc3)ccc2C1 [H1068, (S)-4-(3-(1-(2,3-dichlorophenyl)ethyl)ureido)-N-(2-((5-methyl-2-oxo-1,3-dioxol-4-yl)methyl)-1,2,3,4-tetrahydroisoquinolin-6-yl)benzenesulfonamide] | 8.4 nM | 26.3 nM | 199.7 µL/min/mg | 196.4 µL/min/mg | – | – | – | – |
| C[C@H](NC(=O)Nc1ccc(S(=O)(=O)Nc2ccc(CC(C)(C)O)cc2)cc1)c1cccc(Cl)c1Cl [H1076, (S)-4-(3-(1-(2,3-dichlorophenyl)ethyl)ureido)-N-(4-(2-hydroxy-2-methylpropyl)phenyl) benzenesulfonamide] | 57.7 nM | 515 nM | 91.4 µL/min/mg | 73.9 µL/min/mg | – | – | – | – |
| C[C@H](NC(=O)Nc1ccc(S(=O)(=O)Nc2ccc(CCO)cc2)cc1)c1cccc(Cl)c1Cl [H1094, (S)-4-(3-(1-(2,3-dichlorophenyl)ethyl)ureido)-N-(4-(2-hydroxyethyl)phenyl) benzenesulfonamide] | 118 nM | 488 nM | 55.1 µL/min/mg | 100.8 µL/min/mg | – | – | – | – |
| O=C(NCc1ccccc1)Nc1ccc2c(c1)CC(c1ccc3c(c1)CNC3)S2(=O)=O (stereo not shown) [H1271, 1-benzyl-3-(2-(isoindolin-5-yl)-1,1-dioxido-2,3-dihydrobenzo[b]thiophen-5-yl)urea] | – | – | H < 10 M < 10 R = not reported D = not reported μL/min/mg | H < 10 M < 10 R = not reported D = not reported μL/min/mg | 5 nM | – | – | – |
| CC(c1ccccc1F)N(O)C(=O)Nc1ccc(S(=O)(=O)Cc2ccc3c(c2)CNC3)cc1.Cl (stereo not shown) [H1490, 1-(1-(2-fluorophenyl)ethyl)-1-hydroxy-3-(4-((isoindolin-5-ylmethyl)sulfonyl)phenyl)urea] | – | – | H = 12.8 μL/min/mg | – | – | 3.6 nM | > 30000 nM | 5.43 nM |
| CC(c1ccccc1F)N(O)C(=O)Nc1ccc(S(=O)(=O)Cc2ccc3c(c2)CN(C)C3)cc1 (stereo not shown) [H1491, 1-(1-(2-fluorophenyl)ethyl)-1-hydroxy-3-(4-(((2-methylisoindolin-5-yl)methyl)sulfonyl)phenyl)urea] | – | – | H = 79.5 μL/min/mg | – | – | 4.6 nM | > 30000 nM | 29.7 nM |
| CC(NC(=O)Nc1ccc(S(=O)(=O)Cc2ccc3c(c2)CNC3)c(F)c1)c1ccccc1.Cl (stereo not shown) [H1492, 1-(3-fluoro-4-((isoindolin-5-ylmethyl)sulfonyl)phenyl)-3-(1-phenylethyl)urea] | – | – | H = 24.4 μL/min/mg | – | – | 5.1 nM | > 30000 nM | 36.3 nM |
| Cc1cc(NC(=O)NC(C)c2ccccc2)ccc1S(=O)(=O)Cc1ccc2c(c1)CNC2 (stereo not shown) [H1493, 1-(4-((isoindolin-5-ylmethyl)sulfonyl)-3-methylphenyl)-3-(1-phenylethyl)urea] | – | – | H = 21.5 μL/min/mg | – | – | 4.2 nM | > 30000 nM | 15.3 nM |
| CC(NC(=O)Nc1ccc(S(=O)(=O)Cc2ccc3c(c2)CNC3)c(Cl)c1)c1ccccc1 (stereo not shown) [H1494, 1-(3-chloro-4-((isoindolin-5-ylmethyl)sulfonyl)phenyl)-3-(1-phenylethyl)urea] | – | – | H = 19.1 μL/min/mg | – | – | 4 nM | > 30000 nM | 10.6 nM |
| COc1cc(S(=O)(=O)Cc2ccc3c(c2)CNC3)ccc1NC(=O)N(O)C(C)c1cccc(Cl)c1Cl (stereo not shown) [H1495, 1-(1-(2,3-dichlorophenyl)ethyl)-1-hydroxy-3-(4-((isoindolin-5-ylmethyl)sulfonyl)-2-methoxyphenyl)urea] | – | – | H = 21.1 μL/min/mg | – | – | 1.2 nM | > 30000 nM | 2.16 nM |
| COc1cc(S(=O)(=O)Cc2ccc3c(c2)CN(C)C3)ccc1NC(=O)N(O)C(C)c1cccc(Cl)c1Cl (stereo not shown) [H1496, 1-(1-(2,3-dichlorophenyl)ethyl)-1-hydroxy-3-(2-methoxy-4-(((2-methylisoindolin-5-yl)methyl)sulfonyl)phenyl)urea] | – | – | H = 178.3 μL/min/mg | – | – | 2.5 nM | > 30000 nM | 5.91 nM |
| CNC(=O)c1cc(S(=O)(=O)Cc2ccc3c(c2)CNC3)ccc1NC(=O)NC(C)c1ccccc1 (stereo not shown) [H1499, 5-((isoindolin-5-ylmethyl)sulfonyl)-N-methyl-2-(3-(1-phenylethyl)ureido)benzamide] | – | – | H = 27.1 μL/min/mg | – | – | 7.1 nM | > 30000 nM | 38 nM |
| CC(NC(=O)Nc1ccc(S(=O)(=O)Cc2ccc3c(c2)CNC3)cc1-c1ncco1)c1ccccc1 (stereo not shown) [H1500, 1-(4-((isoindolin-5-ylmethyl)sulfonyl)-2-(oxazol-2-yl)phenyl)-3-(1-phenylethyl)urea] | – | – | H = 61.4 μL/min/mg | – | – | 6.2 nM | > 30000 nM | 16.4 nM |
| CC(NC(=O)Nc1ccc(S(=O)(=O)Cc2ccc3c(c2)CN(C)C3)cc1-c1ncco1)c1ccccc1 (stereo not shown) [H1501, 1-(4-(((2-methylisoindolin-5-yl)methyl)sulfonyl)-2-(oxazol-2-yl)phenyl)-3-(1-phenylethyl)urea] | – | – | H = 319.6 μL/min/mg | – | – | 18.1 nM | > 30000 nM | 119 nM |
| CC(NC(=O)Nc1ccc(S(=O)(=O)Cc2ccc3c(c2)CNC3)c(Br)c1)c1ccccc1 (stereo not shown) [H1504, 1-(3-bromo-4-((isoindolin-5-ylmethyl)sulfonyl)phenyl)-3-(1-phenylethyl)urea] | – | – | H = 19.3 μL/min/mg | – | – | 5.55 nM | > 30000 nM | 6.47 nM |
